Laboratory results taken from paper PMC3796545, “Protein-Protein Interactions as a Strategy towards Protein-Specific Drug Design: The Example of Ataxin-1” (PLoS ONE, 2013).
Read-outs that look alike come from different tables or passages of the source. Peptide text beside a SMILES is read from it.

T1: ATX1 AXH (residues A567–K689 of human ATX1) (Homo sapiens, UniProt P54253)
T1 construct: Recombinant ATX1 AXH (residues A567–K689 of human ATX1); His6-GST (N, cleaved yes); made in house; host or cells: E. coli BL21(DE3)pLysS
T1 sequence (P54253 566-688 limits assumed): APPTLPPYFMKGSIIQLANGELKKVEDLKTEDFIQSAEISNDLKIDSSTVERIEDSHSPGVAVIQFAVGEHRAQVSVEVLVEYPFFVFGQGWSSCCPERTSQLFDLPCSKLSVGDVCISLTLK

T2: ATX1 AXH (residues A567-K689 of human ATX1) (human)
T2 chain: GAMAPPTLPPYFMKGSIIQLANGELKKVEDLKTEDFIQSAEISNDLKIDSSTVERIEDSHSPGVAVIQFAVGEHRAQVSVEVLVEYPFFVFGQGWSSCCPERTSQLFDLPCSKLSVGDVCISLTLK


What was measured:
[1] = molecular target: T1, ATX1 AXH (residues A567–K689 of human ATX1); assay: ITC binding of CIC peptides to ATX1 AXH; conditions: 25°C, 50 mM Tris-HCl pH 7, 50 mM NaCl, 2 mM TCEP, averages of three measurements, read-out: dissociation constant (Kd)
Protocol: Binding affinities of AXH with CIC ligands were measured at 25°C by a MicroCal Omega VP-ITC (MicroCal Inc., Northampton, USA). Both protein and peptides buffers were 50 mM Tris-HCl pH 7, 50 mM NaCl, 2 mM TCEP. Solutions of 0.041 mM AXH in the cell were titrated by injections of a total of 283 µl of 0.410 mM peptide in the syringe in 21 aliquots. Data were processed with the software MicroCal Origin version 5.0 provided by the manufacturer. All dissociation constants were averages of three measurements.

[2] = molecular target: T2, ATX1 AXH (residues A567-K689 of human …); assay: ITC
[3] = 0.041 mM AXH in cell, 0.410 mM peptide in syringe

Row | Molecule | Kd [1, 3] | Kd [2] | also measured
1 | CC(C)C[C@H](NC(=O)[C@H](Cc1ccccc1)NC(=O)[C@@H]1CCCN1C(=O)[C@@H](NC(=O)[C@H](CC(C)C)NC(=O)[C@H](CO)NC(=O)[C@H](Cc1c[nH]cn1)NC(=O)[C@H](Cc1c[nH]c2ccccc12)NC(=O)[C@@H]1CCCN1C(=O)[C@H](Cc1ccccc1)NC(=O)[C@@H](N)C(C)C)C(C)C)C(=O)NCC(=O)N1CCC[C@H]1C(=O)N[C@@H](CO)C(=O)N[C@@H](CCC(N)=O)C(=O)O [A45] (H-VFPWHSLVPFLGPSQ-OH) | 20 nM | – | –
2 | CC(C)C[C@H](NC(=O)[C@H](Cc1ccccc1)NC(=O)[C@@H]1CCCN1C(=O)[C@@H](NC(=O)[C@H](CC(C)C)NC(=O)[C@H](CO)NC(=O)[C@H](Cc1c[nH]cn1)NC(=O)[C@H](Cc1c[nH]c2ccccc12)NC(=O)[C@@H]1CCCN1)C(C)C)C(=O)N[C@@H](C)C(=O)N1CCC[C@H]1C(=O)N[C@@H](CO)C(=O)N[C@@H](CCC(N)=O)C(=O)O [CICp] (H-PWHSLVPFLAPSQ-OH) | 8000 nM | – | –
3 | CC(C)C[C@H](NC(=O)[C@H](Cc1ccccc1)NC(=O)[C@@H]1CCCN1C(=O)[C@@H](NC(=O)[C@H](CC(C)C)NC(=O)[C@H](CO)NC(=O)[C@H](Cc1c[nH]cn1)NC(=O)[C@H](Cc1c[nH]c2ccccc12)NC(=O)[C@@H]1CCCN1C(=O)[C@H](Cc1ccccc1)NC(=O)[C@@H](N)C(C)C)C(C)C)C(=O)N[C@@H](C)C(=O)N1CCC[C@H]1C(=O)N[C@@H](CO)C(=O)N[C@@H](CCC(N)=O)C(=O)O [L-CICp] (H-VFPWHSLVPFLAPSQ-OH) | 30 nM | – | Kd [1]: ~33 nM
4 | CC(C)C[C@H](NC(=O)[C@H](C)NC(=O)[C@H](Cc1c[nH]cn1)NC(=O)[C@H](Cc1c[nH]c2ccccc12)NC(=O)[C@@H]1CCCN1C(=O)[C@H](Cc1ccccc1)NC(=O)[C@@H](N)C(C)C)C(=O)N[C@H](C(=O)N1CCC[C@H]1C(=O)N[C@@H](Cc1ccccc1)C(=O)N[C@@H](CC(C)C)C(=O)N[C@@H](C)C(=O)N1CCC[C@H]1C(=O)N[C@@H](CO)C(=O)N[C@@H](CCC(N)=O)C(=O)O)C(C)C [S39] (H-VFPWHALVPFLAPSQ-OH) | 10 nM | – | –
5 | VFPWHSLAPFLAPSQ [L-CICp with V41 mutated to alanine] | – | 70 nM | –
6 | VFPWHSLVAFLAPSQ [L-CICp with P42 mutated to alanine] | – | 40 nM | –
7 | VAPWHSLVPFLAPSQ [L-CICp with F35 mutated to alanine] | – | 30 nM | –
8 | VFPWASLVPFLAPSQ [L-CICp with H38 mutated to alanine] | – | 50 nM | –
9 | AFPWHSLVPFLAPSQ [L-CICp with V34 mutated to alanine] | – | 20 nM | –
10 | VFAWHSLVPFLAPSQ [L-CICp with P36 mutated to alanine] | – | 40 nM | –
11 | VFPWHSLVPFAAPSQ [L-CICp with L44 mutated to alanine] | – | 50 nM | –
12 | VFPWHSLVPFLAASQ [L-CICp with P46 mutated to alanine] | – | 20 nM | –
13 | VFPWHSLVPALAPSQ [L-CICp with F43 mutated to alanine] | – | 60 nM | –
14 | VFPWHALVPFLAPSQ [L-CICp with S39 mutated to alanine] | – | 10 nM | –

Second part, led by results:

Row | Kd [1, 3] | Kd [2] | Molecule | also measured
15 | 50 nM | – | CC(C)C[C@H](NC(=O)[C@H](Cc1ccccc1)NC(=O)[C@@H]1CCCN1C(=O)[C@@H](NC(=O)[C@H](CC(C)C)NC(=O)[C@H](CO)NC(=O)[C@H](C)NC(=O)[C@H](Cc1c[nH]c2ccccc12)NC(=O)[C@@H]1CCCN1C(=O)[C@H](Cc1ccccc1)NC(=O)[C@@H](N)C(C)C)C(C)C)C(=O)N[C@@H](C)C(=O)N1CCC[C@H]1C(=O)N[C@@H](CO)C(=O)N[C@@H](CCC(N)=O)C(=O)O [H38] (H-VFPWASLVPFLAPSQ-OH) | –
16 | 60 nM | – | CC(C)C[C@H](NC(=O)[C@H](C)NC(=O)[C@@H]1CCCN1C(=O)[C@@H](NC(=O)[C@H](CC(C)C)NC(=O)[C@H](CO)NC(=O)[C@H](Cc1c[nH]cn1)NC(=O)[C@H](Cc1c[nH]c2ccccc12)NC(=O)[C@@H]1CCCN1C(=O)[C@H](Cc1ccccc1)NC(=O)[C@@H](N)C(C)C)C(C)C)C(=O)N[C@@H](C)C(=O)N1CCC[C@H]1C(=O)N[C@@H](CO)C(=O)N[C@@H](CCC(N)=O)C(=O)O [F43] (H-VFPWHSLVPALAPSQ-OH) | –
17 | 40 nM | – | CC(C)C[C@H](NC(=O)[C@H](Cc1ccccc1)NC(=O)[C@H](C)NC(=O)[C@@H](NC(=O)[C@H](CC(C)C)NC(=O)[C@H](CO)NC(=O)[C@H](Cc1c[nH]cn1)NC(=O)[C@H](Cc1c[nH]c2ccccc12)NC(=O)[C@@H]1CCCN1C(=O)[C@H](Cc1ccccc1)NC(=O)[C@@H](N)C(C)C)C(C)C)C(=O)N[C@@H](C)C(=O)N1CCC[C@H]1C(=O)N[C@@H](CO)C(=O)N[C@@H](CCC(N)=O)C(=O)O [P42] (H-VFPWHSLVAFLAPSQ-OH) | –
18 | 50 nM | – | CC(C)C[C@H](NC(=O)[C@H](CO)NC(=O)[C@H](Cc1c[nH]cn1)NC(=O)[C@H](Cc1c[nH]c2ccccc12)NC(=O)[C@@H]1CCCN1C(=O)[C@H](Cc1ccccc1)NC(=O)[C@@H](N)C(C)C)C(=O)N[C@H](C(=O)N1CCC[C@H]1C(=O)N[C@@H](Cc1ccccc1)C(=O)N[C@@H](C)C(=O)N[C@@H](C)C(=O)N1CCC[C@H]1C(=O)N[C@@H](CO)C(=O)N[C@@H](CCC(N)=O)C(=O)O)C(C)C [L44] (H-VFPWHSLVPFAAPSQ-OH) | –
19 | 20 nM | – | CC(C)C[C@H](NC(=O)[C@H](Cc1ccccc1)NC(=O)[C@@H]1CCCN1C(=O)[C@@H](NC(=O)[C@H](CC(C)C)NC(=O)[C@H](CO)NC(=O)[C@H](Cc1c[nH]cn1)NC(=O)[C@H](Cc1c[nH]c2ccccc12)NC(=O)[C@@H]1CCCN1C(=O)[C@H](Cc1ccccc1)NC(=O)[C@H](C)N)C(C)C)C(=O)N[C@@H](C)C(=O)N1CCC[C@H]1C(=O)N[C@@H](CO)C(=O)N[C@@H](CCC(N)=O)C(=O)O [V34] (H-AFPWHSLVPFLAPSQ-OH) | –
20 | 2600 nM | – | CC(C)C[C@H](NC(=O)[C@H](Cc1ccccc1)NC(=O)[C@@H]1CCCN1C(=O)[C@@H](NC(=O)[C@H](CC(C)C)NC(=O)[C@H](CO)NC(=O)[C@H](Cc1c[nH]cn1)NC(=O)[C@H](C)NC(=O)[C@@H]1CCCN1C(=O)[C@H](Cc1ccccc1)NC(=O)[C@@H](N)C(C)C)C(C)C)C(=O)N[C@@H](C)C(=O)N1CCC[C@H]1C(=O)N[C@@H](CO)C(=O)N[C@@H](CCC(N)=O)C(=O)O [W37] (H-VFPAHSLVPFLAPSQ-OH) | –
21 | 30 nM | – | CC(C)C[C@H](NC(=O)[C@H](Cc1ccccc1)NC(=O)[C@@H]1CCCN1C(=O)[C@@H](NC(=O)[C@H](CC(C)C)NC(=O)[C@H](CO)NC(=O)[C@H](Cc1c[nH]cn1)NC(=O)[C@H](Cc1c[nH]c2ccccc12)NC(=O)[C@@H]1CCCN1C(=O)[C@H](C)NC(=O)[C@@H](N)C(C)C)C(C)C)C(=O)N[C@@H](C)C(=O)N1CCC[C@H]1C(=O)N[C@@H](CO)C(=O)N[C@@H](CCC(N)=O)C(=O)O [F35] (H-VAPWHSLVPFLAPSQ-OH) | –
22 | 40 nM | – | CC(C)C[C@H](NC(=O)[C@H](Cc1ccccc1)NC(=O)[C@@H]1CCCN1C(=O)[C@@H](NC(=O)[C@H](CC(C)C)NC(=O)[C@H](CO)NC(=O)[C@H](Cc1c[nH]cn1)NC(=O)[C@H](Cc1c[nH]c2ccccc12)NC(=O)[C@H](C)NC(=O)[C@H](Cc1ccccc1)NC(=O)[C@@H](N)C(C)C)C(C)C)C(=O)N[C@@H](C)C(=O)N1CCC[C@H]1C(=O)N[C@@H](CO)C(=O)N[C@@H](CCC(N)=O)C(=O)O [P36] (H-VFAWHSLVPFLAPSQ-OH) | –
23 | 70 nM | – | CC(C)C[C@H](NC(=O)[C@H](Cc1ccccc1)NC(=O)[C@@H]1CCCN1C(=O)[C@H](C)NC(=O)[C@H](CC(C)C)NC(=O)[C@H](CO)NC(=O)[C@H](Cc1c[nH]cn1)NC(=O)[C@H](Cc1c[nH]c2ccccc12)NC(=O)[C@@H]1CCCN1C(=O)[C@H](Cc1ccccc1)NC(=O)[C@@H](N)C(C)C)C(=O)N[C@@H](C)C(=O)N1CCC[C@H]1C(=O)N[C@@H](CO)C(=O)N[C@@H](CCC(N)=O)C(=O)O [V41] (H-VFPWHSLAPFLAPSQ-OH) | –
24 | 500 nM | – | CC(C)C[C@H](NC(=O)[C@H](Cc1ccccc1)NC(=O)[C@@H]1CCCN1C(=O)[C@@H](NC(=O)[C@H](C)NC(=O)[C@H](CO)NC(=O)[C@H](Cc1c[nH]cn1)NC(=O)[C@H](Cc1c[nH]c2ccccc12)NC(=O)[C@@H]1CCCN1C(=O)[C@H](Cc1ccccc1)NC(=O)[C@@H](N)C(C)C)C(C)C)C(=O)N[C@@H](C)C(=O)N1CCC[C@H]1C(=O)N[C@@H](CO)C(=O)N[C@@H](CCC(N)=O)C(=O)O [L40] (H-VFPWHSAVPFLAPSQ-OH) | –
25 | 20 nM | – | CC(C)C[C@H](NC(=O)[C@H](Cc1ccccc1)NC(=O)[C@@H]1CCCN1C(=O)[C@@H](NC(=O)[C@H](CC(C)C)NC(=O)[C@H](CO)NC(=O)[C@H](Cc1c[nH]cn1)NC(=O)[C@H](Cc1c[nH]c2ccccc12)NC(=O)[C@@H]1CCCN1C(=O)[C@H](Cc1ccccc1)NC(=O)[C@@H](N)C(C)C)C(C)C)C(=O)N[C@@H](C)C(=O)N[C@@H](C)C(=O)N[C@@H](CO)C(=O)N[C@@H](CCC(N)=O)C(=O)O [P46] (H-VFPWHSLVPFLAASQ-OH) | –
